Measured values published in patent US12600726B2, “Antagonists of the muscarinic acetylcholine receptor M4” (Vanderbilt University, priority 2017, dated 2026).

Experiments:
Mouse M4 = target: T1, Mouse M4 (Mus musculus, UniProt P32211); experiment: mAChR M4 cell-based functional calcium flux assay (mouse M4/Gqi5/CHO cells); conditions: for Emin (mouse M4): % ACh maximum at 30 μM; for IC50: decrease of the response to an EC80 concentration of acetylcholine
T1 construct: expressed in transfected cells; host or cells: CHO-K1 (ATCC), stably expressing M4 and Gqi5
T1 sequence (P32211 1-479): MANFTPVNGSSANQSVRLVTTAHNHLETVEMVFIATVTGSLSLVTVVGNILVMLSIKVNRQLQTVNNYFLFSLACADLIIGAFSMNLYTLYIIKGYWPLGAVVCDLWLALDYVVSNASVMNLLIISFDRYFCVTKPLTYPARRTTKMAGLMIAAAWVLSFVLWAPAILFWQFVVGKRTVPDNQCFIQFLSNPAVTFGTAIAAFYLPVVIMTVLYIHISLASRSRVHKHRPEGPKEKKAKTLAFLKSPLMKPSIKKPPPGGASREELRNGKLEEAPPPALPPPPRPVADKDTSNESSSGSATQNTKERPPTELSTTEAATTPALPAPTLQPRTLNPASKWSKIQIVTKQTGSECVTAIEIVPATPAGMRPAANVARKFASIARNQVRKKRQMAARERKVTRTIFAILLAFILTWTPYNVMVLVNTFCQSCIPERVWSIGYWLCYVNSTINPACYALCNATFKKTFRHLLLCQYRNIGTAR
Procedure: Human, rat, or mouse M4. cDNA, along with the chimeric G protein Gqi5, were transfected into Chinese hamster ovary (CHO-K1) cells purchased from the American Type Culture Collection using Lipofectamine2000. M4/Gqi5/CHO cells were grown in Ham's F-12 medium containing 10% heat-inactivated fetal bovine serum (FBS), 20 mM HEPES, 500 μg/mL G418 sulfate, and 200 μg/mL Hygromycin B.
For high throughput measurement of agonist-evoked increases in intracellular calcium, CHO-K1 cells stably expressing muscarinic receptors were plated in growth medium lacking G418 and hygromycin at 15,000 cells/20 μL/well in Greiner 384-well black-walled, tissue culture (TC)-treated, clear-bottom plates (VWR). Cells were incubated overnight at 37° C. and 5% CO2. The next day, cells were washed using an ELX 405 (BioTek) with assay buffer; the final volume was then aspirated to 20 μL. Next, 20 μL of a 2.3 μM stock of Fluo-4/acetoxymethyl ester (Invitrogen, Carlsbad, CA), prepared as a 2.3 mM stock in DMSO and mixed in a 1:1 ratio with 10% (w/v) Pluronic F-127 and diluted in assay buffer, was added to the wells and the cell plates were incubated for 50 min at 37° C. and 5% CO2. Dye was removed by washing with the ELX 405 and the final volume was aspirated to 20 μL. Compound master plates were formatted in a 10 point concentration-response curve (CRC) format (1:3 dilutions) in 100% DMSO with a starting concentration of 10 or 1 mM using a BRAVO liquid handler (Agilent). Test compound CRCs were then transferred to daughter plates (240 nL) using the Echo acoustic plate reformatter (Labcyte, Sunnyvale, CA) and then diluted into assay buffer (40 μL) to a 2× stock using a Thermo Fisher Combi (Thermo Fisher Scientific, Waltham, MA).
Calcium flux was measured using the Functional Drug Screening System (FDSS) 6000 or 7000 (Hamamatsu Corporation, Tokyo, Japan) as an increase in the fluorescent static ratio. Compounds were applied to cells (20 μL, 2×) using the automated system of the FDSS at 2 seconds into the protocol and the data were collected at 1 Hz. At 143 s, 10 μL of an EC20 concentration of the muscarinic receptor agonist acetylcholine was added (5×), followed by the addition of 12 μL of an EC80 concentration of acetylcholine at the 268 s time point (5×). Agonist activity was analyzed as a concentration-dependent increase in calcium mobilization upon compound addition. Positive allosteric modulator activity was analyzed as a concentration-dependent increase in the EC20 acetylcholine response. Antagonist activity was analyzed as a concentration-dependent decrease in the EC80 acetylcholine response; for the purposes of the tables herein, an IC50 (inhibitory concentration 50) was calculated as a concentration-dependent decrease of the response elicited by an EC80 concentration of acetylcholine. Concentration-response curves were generated using a four-parameter logistical equation in XLFit curve fitting software (IDBS, Bridgewater, NJ) for Excel (Microsoft, Redmond, WA) or Prism (GraphPad Software, Inc., San Diego, CA) or the Dotmatics software platform (Dotmatics, Bishop's Stortford, UK).
Compounds were synthesized as described above. Activity (IC50 and Emin) was determined in the mAChR M4 cell-based functional assay as described above and the data are shown in Table 2 and Table 3. The compound number corresponds to the compound numbers used in the examples and Tables 1 and 1.1.

Human M4 = target: T2, Human M4 (Homo sapiens, UniProt P08173); experiment: mAChR M4 cell-based functional calcium flux assay (human M4/Gqi5/CHO cells); conditions: for Emin (human M4): % ACh maximum at 30 μM; for IC50: decrease of the response to an EC80 concentration of acetylcholine
T2 construct: expressed in transfected cells; host or cells: CHO-K1 (ATCC), stably expressing M4 and Gqi5
T2 sequence (P08173 1-479): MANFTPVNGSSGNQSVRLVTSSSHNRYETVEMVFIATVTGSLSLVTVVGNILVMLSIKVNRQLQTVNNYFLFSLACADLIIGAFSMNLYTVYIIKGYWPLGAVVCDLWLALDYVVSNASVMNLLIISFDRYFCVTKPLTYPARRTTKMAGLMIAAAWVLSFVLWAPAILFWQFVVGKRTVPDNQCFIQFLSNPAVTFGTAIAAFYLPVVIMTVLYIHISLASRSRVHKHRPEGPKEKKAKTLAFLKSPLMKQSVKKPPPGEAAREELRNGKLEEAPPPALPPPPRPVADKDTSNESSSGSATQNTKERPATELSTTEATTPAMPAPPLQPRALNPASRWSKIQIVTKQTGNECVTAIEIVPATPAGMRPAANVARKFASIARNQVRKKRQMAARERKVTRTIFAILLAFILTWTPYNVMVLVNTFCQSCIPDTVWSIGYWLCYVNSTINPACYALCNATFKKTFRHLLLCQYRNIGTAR
Outline: (§1)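 CHO-K1 cells stably co-expressing M4 of the given species with chimeric Gqi5 were loaded with Fluo-4 AM and read for calcium flux. Compounds (10-point, 1:3 dilutions) were added first, followed by an acetylcholine EC20 at 143 s and an EC80 at 268 s. IC50 reflects the concentration-dependent fall in the EC80 response, fitted with a four-parameter logistic.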

Rat M4 = target: T3, Rat M4 (Rattus norvegicus, UniProt P08485); experiment: mAChR M4 cell-based functional calcium flux assay (rat M4/Gqi5/CHO cells); conditions: for Emin (rat M4): % ACh maximum at 30 μM; for IC50: decrease of the response to an EC80 concentration of acetylcholine
T3 construct: expressed in transfected cells; host or cells: CHO-K1 (ATCC), stably expressing M4 and Gqi5
T3 sequence (P08485 1-478): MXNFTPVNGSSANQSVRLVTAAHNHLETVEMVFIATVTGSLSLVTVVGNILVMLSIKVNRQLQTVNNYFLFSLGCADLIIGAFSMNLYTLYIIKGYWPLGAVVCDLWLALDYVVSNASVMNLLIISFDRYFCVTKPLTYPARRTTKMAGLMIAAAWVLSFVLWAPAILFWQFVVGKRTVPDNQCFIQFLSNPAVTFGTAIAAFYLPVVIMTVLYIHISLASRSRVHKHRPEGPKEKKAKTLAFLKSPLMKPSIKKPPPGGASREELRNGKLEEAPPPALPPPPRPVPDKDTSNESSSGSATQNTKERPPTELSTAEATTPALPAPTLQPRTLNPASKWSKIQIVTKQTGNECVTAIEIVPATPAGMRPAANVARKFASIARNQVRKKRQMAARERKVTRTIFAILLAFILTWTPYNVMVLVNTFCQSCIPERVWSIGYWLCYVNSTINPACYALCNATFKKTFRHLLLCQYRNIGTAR
Outline: as §1

Compound	Emin (mouse M4) (Mouse M4) [%]	IC50 (Mouse M4) [nM]	Emin (human M4) (Human M4) [%]	IC50 (Human M4) [nM]	Emin (rat M4) (Rat M4) [%]	IC50 (Rat M4) [nM]
C1=CC2CC1CC2CN1CCC2(CC1)CC2CNc1ccc2nncn2n1 (centres unmarked) [Compound 103, N-[[6-(5-bicyclo[2.2.1]hept-2-enylmethyl)-6-azaspiro[2.5]octan-2-yl]methyl]-[1,2,4]triazolo[4,3-b]pyridazin-6-amine]	13	1500				
Fc1ccc(Cl)c(-c2ccc(NC[C@@H]3CC34CCN(CC3CCCOC3)CC4)nn2)c1 (stereo partly drawn) [Compound 106, (R)-6-(2-chloro-5-fluoro-phenyl)-N-[[6-(tetrahydropyran-3-ylmethyl)-6-azaspiro[2.5]octan-2-yl]methyl]pyridazin-3-amine]	9	680				
Fc1ccc(Cl)c(-c2ccc(OCC3CC34CCN(CC3CC5C=CC3C5)CC4)nn2)c1 (centres unmarked) [Compound 86, 6-(5-bicyclo[2.2.1]hept-2-enylmethyl)-2-[[6-(2-chloro-5-fluoro-phenyl)pyridazin-3-yl]oxymethyl]-6-azaspiro[2.5]octane]	3	2810				
CC(C)(C)CCN1CCC2(CC1)CC2CNc1ccc(-c2cc(F)ccc2Cl)cn1 (centres unmarked) [Compound 69, 5-(2-chloro-5-fluoro-phenyl)-N-[[6-(3,3-dimethylbutyl)-6-azaspiro[2.5]octan-2-yl]methyl]pyridin-2-amine]			4.09	749	4.18	1800
Cc1nn(C)cc1-c1ccc(NCC2CC23CCN(C[C@H]2C[C@@H]4CC[C@H]2O4)CC3)nn1 (stereo partly drawn) [Compound 3, N-((6-(((1R,2R,4S)-7-Oxabicyclo[2.2.1]heptan-2-yl)methyl)-6-azaspiro[2.5]octan-1-yl)methyl)-6-(1,3-dimethyl-1H-pyrazol-4-yl)pyridazin-3-amine]			3.52	43.6	7.69	742
Fc1ccc(Cl)c(-c2ccc(NC[C@@H]3CC34CCN(CC3CCOCC3)CC4)nn2)c1 [Compound 107, (R)-6-(2-chloro-5-fluoro-phenyl)-N-[[6-(tetrahydropyran-4-ylmethyl)-6-azaspiro[2.5]octan-2-yl]methyl]pyridazin-3-amine]			4	1.8	6	12.9
Cc1noc(C)c1-c1ccc(NCC2CC23CCN(CCC(C)(C)C)CC3)nn1 (centres unmarked) [Compound 37, N-[[6-(3,3-dimethylbutyl)-6-azaspiro[2.5]octan-2-yl]methyl]-6-(3,5-dimethylisoxazol-4-yl)pyridazin-3-amine]			3.00	5.29	4.23	59.3
CC(C)(C)CCN1CCC2(CC1)C[C@@H]2CNc1ccc(-c2cc(F)ccc2Cl)nn1 [Compound 66, (S)-6-(2-chloro-5-fluoro-phenyl)-N-[[6-(3,3-dimethylbutyl)-6-azaspiro[2.5]octan-2-yl]methyl]pyridazin-3-amine]			3.50	9.91	3.95	151
CC(C)(C)CCN1CCC2(CC1)CC2CNc1ccc(-c2cccc(F)c2)nn1 (centres unmarked) [Compound 27, N-[[6-(3,3-dimethylbutyl)-6-azaspiro[2.5]octan-2-yl]methyl]-6-(3-fluorophenyl)pyridazin-3-amine]			3.18	21.3	3.07	153
Cc1nn(C)cc1-c1cnc(NCC2CC23CCN(CC2CC4C=CC2C4)CC3)cn1 (centres unmarked) [Compound 21, N-[[6-(5-bicyclo[2.2.1]hept-2-enylmethyl)-6-azaspiro[2.5]octan-2-yl]methyl]-5-(1,3-dimethylpyrazol-4-yl)pyrazin-2-amine]			3.65	30.1	4.56	191
O=C(Nc1ccc(-c2cc(F)ccc2Cl)nn1)C1CC12CCN(CC1CC3C=CC1C3)CC2 (centres unmarked) [Compound 18, 6-(5-bicyclo[2.2.1]hept-2-enylmethyl)-N-[6-(2-chloro-5-fluoro-phenyl)pyridazin-3-yl]-6-azaspiro[2.5]octane-2-carboxamide]			3.46	870	4.72	3090
Fc1ccc(Cl)c(-c2ccc(NC[C@@H]3CC34CCN(CC3CC5C=CC3C5)CC4)nn2)c1 (stereo partly drawn) [Compound 108, N-(((1R)-6-(bicyclo[2.2.1]hept-5-en-2-ylmethyl)-6-azaspiro[2.5]octan-1-yl)methyl)-6-(2-chloro-5-fluorophenyl)pyridazin-3-amine]			2	9.89	3	48.1
Cc1nn(C)cc1-c1ccc(NCC2CC23CCN(CC2CCOCC2)CC3)nn1 (centres unmarked) [Compound 61, 6-(1,3-dimethylpyrazol-4-yl)-N-[[6-(tetrahydropyran-4-ylmethyl)-6-azaspiro[2.5]octan-2-yl]methyl]pyridazin-3-amine]			3.54	11.5	5.67	199
CC(=O)Nc1ccc(-c2ccc(NC[C@@H]3CC34CCN(CC3CCCCC3)CC4)nn2)cc1 [Compound 118, N-[4-[6-[[(2R)-6-(cyclohexylmethyl)-6-azaspiro[2.5]octan-2-yl]methylamino]pyridazin-3-yl]phenyl]acetamide]			4	5.85	5	16.7
